“And” between values parts separate entries of the source, which are not always exact repeats. Equal values may be shown once.
System: Human Respiratory Syncytial Virus (RSV)
Test: RSV viral load in mouse lung tissue (RT-PCR), nebulization
Type: in vivo
Experimental: […] Each group consisted of 10 mice, with an equal number of males and females. Except for the normal control group, all mice were lightly anesthetized with isoflurane and infected with respiratory syncytial virus (RSV) via intranasal administration, with each mouse receiving 35 μl of the virus. On the day of infection, the treatment groups began inhalation administration. Each group received nebulization for 25 minutes once daily for four consecutive days. The normal control group and the model control group received nebulized saline under the same conditions. On the fifth day, after weighing, the mice were sacrificed by cervical dislocation, and their lung tissues were dissected, weighed, and used to calculate the lung index and lung index inhibition rate. The lung tissues were also retained for virus load, pathological examination, and inflammatory factor detection. The results were statistically analyzed using the t-test for intergroup comparisons.
After dissecting the mice, the lung tissues were collected and stored in separate containers at −80° C. in a low-temperature freezer. The lung tissues were then removed from the −80° C. freezer and placed in a clean mortar. A small amount of liquid nitrogen was poured into the mortar, and the tissues were ground into powder using a pestle. The powder was collected in a 1.5 ml centrifuge tube, and 1 ml of TRIzol Reagent was immediately added. The tube was gently tapped at the bottom to mix the sample and ensure it was resuspended as soon as possible. The centrifuge tube was then placed horizontally at room temperature and incubated for 20 minutes. Next, it was centrifuged at 4° C. and 12,000 rpm for 10 minutes. The clear supernatant was transferred to a new 1.5 ml centrifuge tube, and 0.2 ml of chloroform was added. The tube was tightly capped, vigorously shaken for 15 seconds, and then incubated at room temperature for 2-3 minutes until the liquid separated into layers. After centrifuging at 4° C. and 12,000 rpm for 15 minutes, the transparent supernatant was carefully transferred to a new 1.5 ml centrifuge tube. Then, 0.5 ml of isopropanol was added, mixed well, and incubated at room temperature for 30 minutes. Following centrifugation at 4° C. and 12,000 rpm for 10 minutes, the supernatant was discarded. The precipitate was gently washed with 1 ml of 75% ethanol (to allow the white precipitate to float slightly), and then centrifuged at 4° C. and 7,500 rpm for 5 minutes. The supernatant was completely aspirated, and the RNA precipitate was briefly dried for 5-10 minutes. The precipitate was then dissolved in 20 μl of DEPC (Diethylpyrocarbonate)-treated water and stored in a −80° C. low-temperature freezer.
Treatment of Control Nucleic Acid: DEPC-H2O was used as a negative control. For the positive control, a series of four concentrations were prepared by gradient dilution at 10^7, 10^6, 10^5, and 10^4 copies/ml.
Reagent Preparation: Mix n×18 μl of RSV nucleic acid fluorescent PCR detection mixture, n×1 μl of internal control, and n×1 μl of RT-PCR enzyme (where n is the number of reaction tubes). Shake vigorously for a few seconds and centrifuge at 3000 rpm for a few seconds.
Sample Addition: Dispense 20 μl of the above mixture into each PCR tube. Then, add 5 μl of sample nucleic acid extract, DEPC-H2O, and positive control to the respective PCR tubes. Tightly close the tube caps, centrifuge for a few seconds to ensure all liquids are at the bottom, and immediately proceed with PCR amplification.
PCR Amplification: Place the reaction tubes in a quantitative fluorescent PCR instrument. Set the cycling parameters as follows: 45° C. for 10 minutes; 95° C. for 15 minutes; then 40 cycles of 95° C. for 15 seconds→60° C. for 60 seconds. Single-point fluorescent detection is performed at 60° C., with a reaction volume of 25 μl.
Fluorescent Channel Selection: Select the FAM and HEX/VIC/JOE channels for detection. […]

[1] = 37.5 mg/ml nebulization 25 min once daily 4 days
[2] = 75 mg/ml nebulization 25 min once daily 4 days

COC(=O)C1=CO[C@@H](O[C@@H]2O[C@H](CO[C@@H]3O[C@H](CO)[C@@H](O)[C@H](O)[C@H]3O)[C@@H](O)[C@H](O)[C@H]2O)[C@@H]2C(CO)=CC[C@H]12 [Genipin-1-β-D-gentiobioside]
Inhibition Rate (viral load) [1]: 57.54% and 57.43% | Viral Load in lung tissue [1]: 22127.79 ± 30384.54 copies/ng | Inhibition Rate (viral load) [2]: 56.08% | Viral Load in lung tissue [2]: 22745.57 ± 13287.06 copies/ng
